Assay results: patent US7572831B2, “Composition containing chalcone” (Angiolab, Inc., priority 2002, dated 2009)

Tests used:
TPA-induced ear edema = TPA-induced ear edema model; assay type: in vivo, ICR mouse; settings: topical 5% in acetone (indomethacin 0.5 mg/ear), 4 hours after TPA; for Δ Ear thickness (um ± S.D): TPA control 176 ± 35
Procedure: To observe the anti-inflammatory effects of chalcone or its derivatives edema was induced in the ear by topical application of 10 ul of TPA (Tetradecanoylphorbol acetate) in acetone (2.5 ug/ear) to both the inner and outer surface of one ear of each 6-week-old ICR mouse. 5% of Chalcone or its derivatives diluted with acetone were applied separately to each ear topically immediately after TPA. The reference drug, indomethacin (0.5 mg/ear), was administered as a positive control. Ear thickness was measured before and 4 hours after treatment with the irritant using a micrometer (Mitutoyo Co.). Ear thickness was expressed as the mean of the difference between thickness before and after challenge. Inhibition ratio percentage of edema was expressed as the reduction in thickness with respect to the control treated only with TPA. As shown in FIG. 6 and Table 2, chalcone or its derivatives suppressed the TPA-induced ear edema.

MMP-13 = biological target: T1, MMP-13 (Homo sapiens, UniProt P45452); test: MMP-13 spectrofluorometric enzyme activity assay; assay type: biochemical; settings: 50 μM compound
T1 construct: made in house; host or cells: Sf21 insect cells, baculovirus (pBlueBac4.5)
Procedure: (§1) MMP-1, MMP-2, MMP-9 and MMP-13 were cloned and prepared from insect cells (Sf21 insect cell) by using a Baculovirus system.
(§2) Each cDNA for corresponding MMPs was cloned to a pBlueBac4.5 transfer vector (Invitrogen, Cat no. V1995-20), and then transfected to Sf21 cells with a Bac-N-Blue Transfection Kit (Invitrogen, Cat no. K855-01). Sf21 cells were incubated with a TNM-FH (Sigma, St. Louis, Mo., U.S.A) media containing 10% fetal bovine serum at 27° C., then harvested and re-suspended at a concentration of 10^7 cell/Ml. The cell suspension was incubated with a virus containing the cloned gene for 1 hr at room temperature. Infected Sf21 cells were grown for 72 hrs and the medium was recovered, and the MMP was purified. MMP-2 (GENEBANK No. XM—048244) and MMP-9 (GENEBANK No. XM—009491) were recovered from a gelatin-sepharose affinity column (Sigma, G5384) by eluting with 5% DMSO-containing buffer. MMP-1 (GENEBANK NO. XM—040735) and MMP-13 (GENEBANK NO. NM_002427) were purified with SP-sepharose column (Pharmacia, 17-02729-01) chromatography.
(§3) In order to investigate MMP inhibition by chalcone or its derivatives, MMP enzyme activity was assayed by a spectrofluorometric method using Perkin-Elmer LS50B.
(§4) Purified MMP-1, MMP-2, MMP-9 and MMP-13 were used after activation with 1 mM APMA before assay.
(§5) The substrate for MMP-1 was 2,4-dinitrophenyl-Pro-Leu-Ala-Leu-Trp-Ala-Arg-OH (Calbiochem). 2,4-dinitrophenyl-Pro-Leu-Met-Trp-Ser-Arg-OH (Calbiochem) was used for MMP-2 and MMP-9 activity assay. As a substrate for MMP-13, MCA-Pro-Cha-Gly-Nva-His-Ala-Dpa-NH2 (Calbiochem) was used [MCA=methyl coumarylamide; Cha=L-cyclohexylalanine; Nva=L-norvaline; Dpa=3-(2,4-dinitrophenyl)-L-2,3-diaminoproprionic acid].
(§6) As a control, 2 Ml of reaction buffer (50 mM Tricine, pH 7.5, 10 mM CaCl2, 200 mM NaCl) comprising DMSO, 10 nM of enzyme and 10 μM of substrate was prepared in a cuvette. Fluorescence intensity was measured for 5-10 min at room temperature with a spectrofluorometer.
(§7) 50 μM Chalcone or its derivatives were added to a reaction buffer containing a substrate and enzyme, and fluorescence intensity was measured in the same manner.

MMP-2 = biological target: T2, MMP-2 (Homo sapiens, UniProt P08253); test: MMP-2 spectrofluorometric enzyme activity assay; assay type: biochemical; settings: 50 μM compound
T2 construct: made in house; host or cells: Sf21 insect cells, baculovirus (pBlueBac4.5)
T2 sequence (P08253 110-660): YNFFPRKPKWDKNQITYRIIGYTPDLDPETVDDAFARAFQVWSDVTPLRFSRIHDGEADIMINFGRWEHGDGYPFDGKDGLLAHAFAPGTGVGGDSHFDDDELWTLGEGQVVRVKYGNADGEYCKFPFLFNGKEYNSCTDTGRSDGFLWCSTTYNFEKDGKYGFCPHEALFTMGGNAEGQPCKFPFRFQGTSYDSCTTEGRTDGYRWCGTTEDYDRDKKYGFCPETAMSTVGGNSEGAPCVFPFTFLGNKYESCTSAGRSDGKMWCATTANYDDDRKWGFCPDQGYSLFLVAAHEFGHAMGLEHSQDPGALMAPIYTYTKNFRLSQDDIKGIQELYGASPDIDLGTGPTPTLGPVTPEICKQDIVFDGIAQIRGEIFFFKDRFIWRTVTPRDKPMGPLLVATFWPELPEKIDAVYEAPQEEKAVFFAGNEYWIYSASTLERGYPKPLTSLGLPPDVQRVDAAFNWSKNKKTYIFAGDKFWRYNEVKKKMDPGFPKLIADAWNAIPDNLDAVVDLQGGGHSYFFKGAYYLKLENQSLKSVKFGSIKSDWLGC
Procedure: as §1, §2, §3, §4, §5, §6, §7

[1] = system: human umbilical vein endothelial cells (HUVECs); test: Tube formation of HUVEC on Matrigel; assay type: cell-based; settings: 50 μM, 8-16 hrs
From the text: The effect of chalcone or its derivatives on human endothelial cells was investigated to evaluate the biological effect of chalcones as MMP inhibitors. Since MMPs are responsible for the degradation of extracellular matrix, chalcone or its derivatives can inhibit the formation of tubular network of vessel, which represent migration and differentiation of endothelial cell. Blood vessel endothelial cells, human umbilical vein endothelial cells (HUVECs), were isolated from freshly obtained cords after cesarean section according to Grants' method (Grants D. S., et al., Cell, 58, pp933-943, 1989). They were identified by immunocytochemical staining with anti-Factor VIII antibody. HUVECs cultured on Matrigel (BD Bioscience, Bedford, Mass., USA) were treated with 50 μM of chalcone or its derivatives, and further incubated at 37° C. for 8-16 hrs. As a control, the procedure was repeated with the solvent of the above compounds.

SMILES	Inhibition ratio (%) of ear edema (TPA-induced ear edema) [%]	Δ Ear thickness (um ± S.D) (TPA-induced ear edema) [um]	MMP-13 inhibition (% inhibition) (MMP-13)	MMP-2 inhibition (% inhibition) (MMP-2)	Tubular (microvascular) network formation of HUVEC [1]
O=C(C=Cc1ccccc1O)c1ccccc1 [2-hydroxy chalcone, 2-hydroxychalcone (1-phenyl-3-(2-hydroxyphenyl)prophenone)]	58.0	74 ± 20	89.9	90.4	–
COc1ccc(C(=O)C=Cc2ccccc2)c(OC)c1 [2′,4′-dimethoxy chalcone, 2′,4′-dimethoxychalcone (1-(2,4-dimethoxyphenyl)-3-phenylprophenone)]	–	–	83.4	92.5	–
O=C(C=Cc1ccc(O)cc1)c1ccccc1 [4-hydroxy chalcone, 4-hydroxychalcone (1-phenyl-3-(4-hydroxyphenyl)prophenone)]	–	–	94.5	95.9	–
COc1ccc(C=CC(=O)c2ccccc2)cc1 [4-methoxy chalcone, 4-methoxychalcone (1-phenyl-3-(4-methoxyphenyl)prophenone)]	56.2	77 ± 19	83.9	92.7	–
COc1ccc(C(=O)C=Cc2ccccc2)cc1 [4′-methoxy chalcone, 4′-methoxychalcone (1-(4-methoxyphenyl)-3-phenylprophenone)]	40.9	104 ± 21	86.8	99.1	microvascular network was disconnected
COc1ccc2c(c1)c(CC(=O)O)c(C)n2C(=O)c1ccc(Cl)cc1 [Indomethacin, reference compound]	72.7	48 ± 25	–	–	–
O=C(CCc1ccc(O)cc1)c1c(O)cc(O)cc1O [Phloretin]	–	–	77.0	87.2	–
